Data reported in patent US6197335A, “Solid pharmaceutical compositions comprising a cyclosporin and an anionic surfactant” (Sherman; Bernard Charles, priority 1997, dated 2001).

Experiment: critical micelle concentration of the surfactant in water
Type: physicochemical
Description: The ability of anionic surfactants to solubilize cyclosporins in water substantially increases when the concentration of the surfactant in water substantially exceeds the critical micelle concentration. Using sodium lauryl sulfate, for example, the critical micelle concentration is about 0.1% by weight.

For `CCCCCCCCCCCCOS(=O)(=O)[O-].[Na+]` [sodium lauryl sulfate], the critical micelle concentration was “about 0.1 % by weight”.
